Key:
m-NTPDase1 = target: T1, m-NTPDase1 (Mus musculus, UniProt P55772); assay: m-NTPDase1 inhibition, malachite green assay; assay type: biochemical; conditions: for inhibition at 100 µM: compound 100 µM; for IC50: mean ± SEM of three independent experiments
T1 construct: made in house; host or cells: COS-7 cells, transient transfection; crude protein extract after sonication
T1 sequence (P55772 1-510): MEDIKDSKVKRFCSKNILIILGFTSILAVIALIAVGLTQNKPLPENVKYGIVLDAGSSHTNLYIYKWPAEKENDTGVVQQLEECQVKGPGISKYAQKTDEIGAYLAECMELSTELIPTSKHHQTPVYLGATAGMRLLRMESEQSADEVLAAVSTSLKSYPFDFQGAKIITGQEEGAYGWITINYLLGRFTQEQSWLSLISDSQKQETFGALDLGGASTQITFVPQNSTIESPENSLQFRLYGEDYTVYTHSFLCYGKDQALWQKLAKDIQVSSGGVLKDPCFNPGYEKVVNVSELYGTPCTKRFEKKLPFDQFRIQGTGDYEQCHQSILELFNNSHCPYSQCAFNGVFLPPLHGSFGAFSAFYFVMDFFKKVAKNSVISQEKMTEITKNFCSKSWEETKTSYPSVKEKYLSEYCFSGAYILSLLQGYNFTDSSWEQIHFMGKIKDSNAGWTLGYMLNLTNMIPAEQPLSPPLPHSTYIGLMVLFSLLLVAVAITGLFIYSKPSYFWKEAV
Method: (§1) COS-7 cells were transfected with plasmids expressing human or mouse NTPDases1, -2, -3, and -8 as previously described ([Levesque et al., 2007]; [Lecka et al., 2014]) Briefly, the confluent cells were transferred to Dulbecco’s Modified Eagle’s Medium containing no fetal bovine serum. Then, these cells were incubated with plasmid DNA (6 µg) and Lipofectamine reagent (24 µl) at 37°C. After 5 h, transfection was terminated with the addition of an equal volume of DMEM/F-12 (supplemented with 20% FBS) and cells were collected by harvesting after 40–72 h.
(§2) To prepare protein extracts, transfected COS-7 cells were washed three times with tris-saline buffer while temperature was maintained at 4°C. Then cells were scraped and resuspended in harvesting buffer containing 95 mM NaCl, 45 mM tris and 0.1 mM phenylmethylsulfonyl fluoride (pH 7.5). Cells were again washed twice by centrifugation for 5 min at 300 × g at 4°C and then resuspended in harvesting buffer (supplemented with 10 μg ml aprotinin). Following sonication, cellular debris was isolated by 10 min centrifugation at 300 g at 4°C. Subsequently, supernatant was removed very carefully and protein concentration was determined by using Bradford microplate assay while using the bovine serum albumin as a standard ([Bradford, 1976]).
(§3) The inhibitory effects of synthesized compounds on h-NTPDase1, -2, -3, and -8 were determined as described previously, although with slight modifications ([Martín-Satué et al., 2009]). Assay was conducted in a reaction medium containing 50 mM tris-HCl and 5 mM CaCl2 (pH 7.4). All the test compounds were dissolved in dimethyl sulfoxide (DMSO, 10%) and initially screened at a concentration of 100 µM. A reaction mixture containing 55 µl of assay buffer, 10 µl of test compound solution and 10 µl of h-NTPDase1 (58 ng/well) or h-NTPDase2 (79 ng/well) or h-NTPDase3 (163 ng/well) or h-NTPDase8 (66 ng/well) was incubated at 37°C for 10 min. Following the incubation, a 10 µl solution of adenosine triphosphate (ATP, 100 µm) was added as substrate and reaction mixture was again incubated for 15 min at 37°C. The reaction was stopped by adding malachite green reagent (15 µl) and placed at room temperature for 4 to 6 min. Finally, absorbance was measured at 630 nm by using Omega FLUOstar microplate reader (BMG Labtech, Ortenberg, Germany) and % inhibitions were calculated. For compounds showing more than 50% inhibition of any isozyme, dose response curves were generated and their IC50 values were determined. Three separate enzyme inhibition assays were carried out in triplicate and dose-response curve were generated by using PRISM 5.0 (GraphPad, San Diego, United States).
Same procedure was adopted to determine the inhibitory effects of compounds on mouse NTPDases (m-NTPDases). However, the amount of protein used was as follows: m-NTPDase1 (82 ng/well), m-NTPDase2 (57 ng/well), m-NTPDase3 (110 ng/well) and m-NTPDase8 (79 ng/well)

h-NTPDase3 = target: T2, h-NTPDase3 (Homo sapiens, UniProt O75355); assay: h-NTPDase3 inhibition, malachite green assay; assay type: biochemical; conditions: for inhibition at 100 µM / Ki / IC50: human NTPDase3; for inhibition at 100 µM: compound 100 µM; for Mode of inhibition of h-NTPDase3: Lineweaver-Burk plot; for IC50: ATP 100 µM substrate, mean ± SEM of three independent experiments
T2 construct: made in house; host or cells: COS-7 cells, transient transfection; crude protein extract after sonication
T2 sequence (O75355 1-529): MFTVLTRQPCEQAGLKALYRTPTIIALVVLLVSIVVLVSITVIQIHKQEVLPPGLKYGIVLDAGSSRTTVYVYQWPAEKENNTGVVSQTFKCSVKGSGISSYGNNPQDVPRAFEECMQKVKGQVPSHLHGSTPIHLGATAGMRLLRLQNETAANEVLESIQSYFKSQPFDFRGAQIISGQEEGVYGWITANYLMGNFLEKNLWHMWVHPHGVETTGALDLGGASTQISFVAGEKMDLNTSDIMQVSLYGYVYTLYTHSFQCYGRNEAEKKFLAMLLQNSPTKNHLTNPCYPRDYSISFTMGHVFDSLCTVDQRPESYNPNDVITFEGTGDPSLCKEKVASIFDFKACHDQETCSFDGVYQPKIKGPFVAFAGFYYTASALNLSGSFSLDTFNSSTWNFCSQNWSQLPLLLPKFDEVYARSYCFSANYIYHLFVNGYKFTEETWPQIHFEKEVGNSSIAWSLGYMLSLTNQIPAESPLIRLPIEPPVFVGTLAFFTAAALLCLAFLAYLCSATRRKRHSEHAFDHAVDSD
Method: as §1, §2, §3

inhibition at 100 µM (m-NTPDase1)	inhibition at 100 µM (h-NTPDase3)	melting point	IC50 (m-NTPDase1)	Compound	other results
38%	20%	–	–	O=C1Nc2ccccc2/C1=N/NC(=S)Nc1ccccc1 [8a, (Z)-2-(2-oxoindolin-3-ylidene)-N-phenylhydrazine-1-carbothioamide]	–
48%	17%	235 to 236 °C	–	O=C1Nc2ccccc2/C1=N/NC(=S)Nc1cccc(Cl)c1 [8g, (Z)-N-(3-chlorophenyl)-2-(2-oxoindolin-3-ylidene)hydrazine-1-carbothioamide]	–
20%	25%	250 to 252 °C	–	Cc1cccc(C)c1NC(=S)N/N=C1\C(=O)Nc2ccccc21 [8i, (Z)-N-(2,6-dimethylphenyl)-2-(2-oxoindolin-3-ylidene)hydrazine-1-carbothioamide]	–
29%	26%	–	–	Cc1ccc(NC(=S)N/N=C2\C(=O)Nc3ccccc32)cc1 [8h, (Z)-2-(2-oxoindolin-3-ylidene)-N-(p-tolyl)hydrazine-1-carbothioamide]	–
14%	–	271 to 272 °C	–	O=C1Nc2ccccc2/C1=N/NC(=S)Nc1ccc([N+](=O)[O-])cc1 [8b, (Z)-N-(4-nitrophenyl)-2-(2-oxoindolin-3-ylidene)hydrazine-1-carbothioamide]	–
28%	–	240 to 244 °C	–	O=C1Nc2ccccc2/C1=N/NC(=S)Nc1ccc(Cl)cc1 [8c, (Z)-N-(4-chlorophenyl)-2-(2-oxoindolin-3-ylidene)hydrazine-1-carbothioamide]	Times more active than standard inhibitor suramin (comparison of IC50s), h-NTPDase3 (h-NTPDase3; IC50 ratio versus suramin): 22 times; Mode of inhibition of h-NTPDase3 (h-NTPDase3): competitive; Ki (h-NTPDase3): 0.08 µM; IC50 (h-NTPDase3): 0.19 ± 0.02 µM
24%	34%	245 to 248 °C	–	COc1ccc(OC)c(NC(=S)N/N=C2\C(=O)Nc3ccccc32)c1 [8j, (Z)-N-(2,5-dimethoxyphenyl)-2-(2-oxoindolin-3-ylidene)hydrazine-1-carbothioamide]	–
–	–	206 to 208 °C	4.14 ± 0.13 µM	O=C1Nc2ccccc2/C1=N/NC(=S)NCc1ccccc1 [8f, (Z)-N-benzyl-2-(2-oxoindolin-3-ylidene)hydrazine-1-carbothioamide]	Ki (m-NTPDase1): 0.04 µM
42%	19%	–	–	COc1ccc(NC(=S)NNC2=c3ccccc3=NC2=O)cc1 [8k, (Z)-N-(4-methoxyphenyl)-2-(2-oxoindolin-3-ylidene)hydrazine-1-carbothioamide]	–
–	–	–	> 100 µM	Cc1ccc(C(=O)Nc2ccc(S(=O)(=O)O)c3cc(S(=O)(=O)O)cc(S(=O)(=O)O)c23)cc1NC(=O)c1cccc(NC(=O)Nc2cccc(C(=O)Nc3cc(C(=O)Nc4ccc(S(=O)(=O)O)c5cc(S(=O)(=O)O)cc(S(=O)(=O)O)c45)ccc3C)c2)c1 [Suramin, reference compound]	Ki (h-NTPDase3): 1.85 µM; IC50 (h-NTPDase3): 4.31 ± 0.41 µM
–	–	190 to 194 °C	3.6 ± 0.02 µM	CCNC(=S)N/N=C1\C(=O)Nc2ccccc21 [8m, (Z)-N-ethyl-2-(2-oxoindolin-3-ylidene)hydrazine-1-carbothioamide]	Ki (m-NTPDase1): 0.04 µM; Mode of inhibition of h-NTPDase3 (h-NTPDase3): non-competitive; Ki (h-NTPDase3): 0.16 µM; IC50 (h-NTPDase3): 0.38 ± 0.03 µM
–	–	243 to 244 °C	3.22 ± 0.19 µM	O=C1Nc2ccccc2/C1=N/NC(=S)Nc1c(F)cccc1F [8l, (Z)-N-(2,6-difluorophenyl)-2-(2-oxoindolin-3-ylidene)hydrazine-1-carbothioamide]	Ki (m-NTPDase1): 0.03 µM
–	–	220 to 224 °C	0.6 ± 0.03 µM	COc1cccc(NC(=S)N/N=C2\C(=O)Nc3ccccc32)c1 [8e, (Z)-N-(3-methoxyphenyl)-2-(2-oxoindolin-3-ylidene)hydrazine-1-carbothioamide]	Ki (m-NTPDase1): 0.006 µM
41%	46%	255 to 256 °C	–	O=C1Nc2ccccc2/C1=N/NC(=S)Nc1ccc(F)cc1 [8d, (Z)-N-(4-fluorophenyl)-2-(2-oxoindolin-3-ylidene)hydrazine-1-carbothioamide]	–
